Assay results taken from patent publication US20010055776A1, “High throughput cell-based assay kits” (priority 2000, published 2001).

System: hemoglobin synthesis in human erythroid progenitors
Assay: Filter plate assay of hemoglobin (HbA) in differentiating erythroid progenitors with Europium-labeled anti-hemoglobin
Type: cell-based
Details: 168 h, 0.5 mM succinylacetone, 1,000 cells/well, 3.0 μm PCF filter plate, IL-3, IL-6, SCF, EPO, 7 days, read-out: succinylacetone-mediated inhibition of hemoglobin
Description: FIG. 6. Adult hemoglobin (HbA) expression by differentiating human erythroid progenitors. Cryopreserved progenitors were thawed and seeded into wells of a 96-well PCF filter plate at a density of 1,000 cells/well and cultured in the presence of IL-3, IL-6, EPO, and SCF ±/−0.5 mM succinylacetone. Hemoglobin was assayed by the filter plate procedure on day 7.
To establish the linearity of the assay relative to cell number, peripheral blood erythrocytes were seeded into wells of PCF filter plates (0.4 μm pore size for peripheral blood erythrocytes and 3.0 μm pore size for progenitor cells), fixed with 0.1 ml 1% formaldehyde for 30 minutes and then washed once with Hank's balanced salt solution (HBSS) (0.2 ml/well) and twice with HBSS containing 0.1% bovine serum albumin (BSA). All washes were done in a Millipore Silent Screen vacuum manifold with a vacuum pressure of 5″ Hg.
The cells were then permeabilized by incubation with 0.2 ml 0.1% Triton X-100 in HBSS-BSA for 10 minutes at room temperature. […] Enhancement Solution (Wallac) was added (0.1 ml/well), and after 5 minutes Europium fluorescence (excitation at […] and emission at 615 nm) was measured over a 400 μsecond time period after an initial delay of 400 μseconds with a Wallac Victor spectrofluorimeter. […]

CC(=O)CC(=O)CCC(=O)O [succinylacetone]
inhibition at 500 µM: 86%
